Measured values as given in patent US9040663B2, “Melanocortin receptor-specific peptides” (AstraZeneca AB, priority 2009, dated 2015).
Where “and” joins values, the source holds several entries; their conditions need not be identical. Identical values can stand only once. Like-named read-outs stand apart in the source and are kept apart here.

Columns and labels:
[1] = Food intake and body weight change; type: in vivo, Sprague-Dawley rats; settings: male rats, 1.0 mg/kg s.c., mean ± SEM; for BW change 0-24 h: body weight; for FI 0-4 h / FI 0-24 h: food intake
Procedure: 7.4 Food Intake and Body Weight Change.
Change in food intake and body weight was evaluated for selected peptides administered by subcutaneous injection route. Male Sprague-Dawley rats were obtained from Hilltop Lab Animals, Inc. (Scottdale, Pa.). Animals were individually housed in conventional polystyrene hanging cages and maintained on a controlled 12 hour on/off light cycle. Water and pelleted food (ProLab RMH 2500, W.F. Fisher & Son Inc.) was provided ad libitum. The rats were dosed subcutaneously with vehicle (3.2% mannitol/50 mM Tris buffer) or selected peptides (1.0 mg/kg). The changes in food intake for the 4 and 24 hour periods after dosing and the changes in body weight for the 24 hour period after dosing were determined. The changes in body weight and food intake for the 48 hour and 72 hour periods after dosing was also measured to determine reversal of changes in body weight and food intake effects back to baseline levels (not shown).

[2] = biological target: MC1-R; experiment: Competitive inhibition binding assay using [I125]-NDP-α-MSH, MC1-R; settings: membranes of B-16 mouse melanoma cells (endogenous MC1-R), in some instances HEK-293 hMC1-R
Procedure, shortened: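 Radioligand displacement on membranes from B-16 mouse melanoma cells (endogenous MC1-R) or HEK-293 expressing recombinant hMC1-R, with 0.1 nM [I125]-NDP-α-MSH and increasing peptide concentrations in HEPES pH 7.5 buffer, 60 min at 37° C.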

[3] = Induction of penile erection; settings: male rats; for Total number of PE/rat 0-1 h: mean ± SEM; for % Responders: rats showing at least one erection
Procedure: 7.5 Induction of Penile Erection.
(§1) The ability of peptides of the present invention to induce penile erection (PE) in male rats was evaluated with selected peptides. Male Sprague-Dawley rats weighing 250-300 g were kept on a 12 hour on/off light cycle with food and water ad libitum. All behavioral studies were performed between 9 a.m. and 4 p.m.
(§2) Corresponding vehicle controls (3.2% mannitol/50 mM Tris buffer) were run in parallel.

[4] = biological target: T1, hMC4-R (Homo sapiens (Human), UniProt P32245); experiment: High and low density hMC4-R functional assay (cAMP, HEK293-T-REx-MC4-R cells); type: cell-based; settings: for Emax: NDP-α-MSH = 100%
[5] = biological target: T1, hMC4-R; experiment: Competitive inhibition binding assay using [I125]-NDP-α-MSH, hMC4-R; settings: membranes of HEK-293 cells expressing recombinant hMC4-R, read-out: MC4-R Ki
[6] = in vivo, sc
Procedure: 7.5 Induction of Penile Erection.
as §1, §2

[7] = 0.1 ng/mL Doxycycline (low density hMC4-R system)
[8] = 0.1 ng/mL Doxycycline (low density hMC4-R system), read-out: Intrinsic Activity (%)
[9] = 10 ng/mL Doxycycline (high density hMC4-R system)
[10] = 10 ng/mL Doxycycline (high density hMC4-R system), read-out: Intrinsic Activity (%)

T1 sequence (P32245 whole entry): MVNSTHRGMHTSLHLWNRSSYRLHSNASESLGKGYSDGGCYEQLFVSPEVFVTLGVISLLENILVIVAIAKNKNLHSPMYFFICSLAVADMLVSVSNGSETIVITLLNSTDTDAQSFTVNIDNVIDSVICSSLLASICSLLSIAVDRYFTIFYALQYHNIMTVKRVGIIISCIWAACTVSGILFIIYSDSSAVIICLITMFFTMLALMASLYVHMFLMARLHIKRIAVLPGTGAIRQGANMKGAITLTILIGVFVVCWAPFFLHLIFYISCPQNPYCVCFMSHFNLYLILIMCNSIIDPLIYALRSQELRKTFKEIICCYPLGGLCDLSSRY

Row | SMILES | Ki [2] [nM] | Total number of PE/rat 0-1 h ([3]; 1.0 mg/kg s.c.) | % Responders ([3]; 1.0 mg/kg s.c.) [%] | Total number of PE/rat 0-1 h ([3]; 3.0 mg/kg s.c.) | % Responders ([3]; 3.0 mg/kg s.c.) [%] | EC50 [4, 7] [nM] | Emax [4, 8] [%] | EC50 [4, 9] [nM] | Emax [4, 10] [%] | Ki [5] [nM] | Total number of PE/rat 0-1 h ([6]; 1 mg/kg) | Total number of PE/rat 0-1 h ([6]; 3 mg/kg) | Emax ([4]; Table 1, mean values, 0.1 ng/mL Doxycycline (low density hMC4-R system), read-out: Intrinsic activity (%)) [%] | BW change 0-24 h [1] [g] | FI 0-4 h [1] | FI 0-24 h [1]
1 | CC(=O)N[C@@H](CCCNC(=N)N)C(=O)N[C@H]1CCC(=O)NCCC[C@@H](C(N)=O)NC(=O)[C@H](Cc2c[nH]c3ccccc23)NC(=O)[C@H](CCCNC(=N)N)NC(=O)[C@@H](Cc2ccc(F)cc2)NC(=O)[C@@H]2CCCN2C1=O [Example 67, Ac-Arg-cyclo(Glu-Pro-D-Phe(4-F)-Arg-Trp-Orn)-NH2] | 130 | 2.3 ± 0.42 | 86 | 3.3 ± 1.0 | 100 | 1 | 38 | 0.14 | 99 | 5 | – | – | – | -0.05 ± 0.39 | 4.20 ± 0.66 g | 21.51 ± 1.27 g
2 | CC(=O)N[C@@H](CCCNC(=N)N)C(=O)N[C@H]1CCC(=O)NCCC[C@@H](C(N)=O)NC(=O)[C@H](Cc2c[nH]c3ccccc23)NC(=O)[C@H](CCCNC(=N)N)NC(=O)[C@@H](Cc2ccc(C#N)cc2)NC(=O)[C@H](CC(N)=O)NC1=O [Example 43, Ac-Arg-cyclo(Glu-Asn-D-Phe(4-CN)-Arg-Trp-Orn)-NH2] | 870 | 1.7 ± 0.36 | 29 | 6.0 ± 0.76 | 100 | 1 | 43 | – | 100 | 5 | – | – | – | 0.45 ± 0.35 | 6.85 ± 0.55 g | 24.44 ± 0.85 g
3 | CC(=O)N[C@@H](CCCNC(=N)N)C(=O)N[C@H]1CCC(=O)NCCC[C@@H](C(N)=O)NC(=O)[C@H](Cc2c[nH]c3ccccc23)NC(=O)[C@H](CCCNC(=N)N)NC(=O)[C@@H](Cc2ccc(C#N)cc2)NC(=O)[C@H](CCC(N)=O)NC1=O [Example 46, Ac-Arg-cyclo(Glu-Gln-D-Phe(4-CN)-Arg-Trp-Orn)-NH2] | – | – | 100 | – | 86 | – | 40 | – | 97 | 4 | 4.9 ± 1.1 | 4.4 ± 1.1 | – | -0.29 ± 0.55 | 3.71 ± 0.68 g | 20.56 ± 1.14 g

Continued, in another order:

Row | Ki [2] [nM] | Total number of PE/rat 0-1 h ([3]; 1.0 mg/kg s.c.) | % Responders ([3]; 1.0 mg/kg s.c.) [%] | Total number of PE/rat 0-1 h ([3]; 3.0 mg/kg s.c.) | % Responders ([3]; 3.0 mg/kg s.c.) [%] | EC50 [4, 7] [nM] | Emax [4, 8] [%] | EC50 [4, 9] [nM] | Emax [4, 10] [%] | Ki [5] [nM] | Total number of PE/rat 0-1 h ([6]; 1 mg/kg) | Total number of PE/rat 0-1 h ([6]; 3 mg/kg) | Emax ([4]; Table 1, mean values, 0.1 ng/mL Doxycycline (low density hMC4-R system), read-out: Intrinsic activity (%)) [%] | SMILES | BW change 0-24 h [1] [g] | FI 0-4 h [1] | FI 0-24 h [1]
4 | – | – | – | 6.0 ± 0.44 | 100 | – | – | – | – | – | – | – | 92 | CC(=O)N[C@@H](CCCNC(=N)N)C(=O)N[C@H]1CCC(=O)NCCC[C@@H](C(=O)O)NC(=O)[C@H](Cc2c[nH]c3ccccc23)NC(=O)[C@H](CCCNC(=N)N)NC(=O)[C@@H](Cc2ccccc2)NC(=O)[C@H](CCN)NC1=O [Ref Ex 2, Ac-Arg-cyclo(Glu-Dab-D-Phe-Arg-Trp-Orn)-OH, reference compound] | – | 3.17 ± 0.42 g and 4.41 ± 0.48 g and 2.80 ± 0.27 g | 19.98 ± 0.60 g and 20.84 ± 1.01 g and 21.81 ± 1.04 g
5 | 23 | – | – | – | – | 10 | 28 | 0.8 | 98 | 20 | – | – | – | CC(=O)N[C@@H](CCCNC(=N)N)C(=O)N[C@H]1CCC(=O)NCCC[C@@H](C(=O)O)NC(=O)[C@H](Cc2c[nH]c3ccccc23)NC(=O)[C@H](CCCNC(=N)N)NC(=O)[C@@H](Cc2cccc(Cl)c2)NC(=O)[C@H](CCCN)NC1=O [Example 55, Ac-Arg-cyclo(Glu-Orn-D-Phe(3-Cl)-Arg-Trp-Orn)-OH] | – | – | –
